Assay results: patent publication US20260232682A1, “GSPT1 DEGRADER COMPOUNDS” (Captor Therapeutics S.A., priority 2023, published 2026)

Legend:
[1] = tested on: GSPT1-HiBiT HEK293 cells; experiment: Cell Viability-CTG assay accompanying the Nano-Glo HiBiT assay; format: cell-based; conditions: 6 hours treatment, viability of GSPT1-HiBiT HEK293 cells
In short: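 HEK293 GSPT1-HiBiT cells treated as for the HiBiT assay, incubated 6 h at 37 °C/5% CO2, then equilibrated to RT. Viability read by CellTiter-Glo luminescence after 4 min shaking and 8 min dark incubation; Mean Minimum values derived by non-linear regression of RLU data.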

[2] = biological target: T1, [GSPT1]-[compound of formula (I)]-[CRBN/DDB1] complex (Homo sapiens, UniProt P15170+Q96SW2); experiment: AlphaLISA ternary complex formation assay (GSPT1); format: binding; conditions: 0.5 h; 1 μM compound; normalized to reference compound CC-885; read-out: Normalized AlphaLISA ternary complex average signal at 1 μM molecule
In short: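 Biotinylated GSPT1 on streptavidin donor beads and 6×His-CRBN/DDB1 on anti-His acceptor beads (each 200 nM before mixing) in HBS pH 7.4 with 0.1% Tween-20 and 1 mM DTT, 2% DMSO final, 30 min at 25 °C. AlphaLISA luminescence is normalized between DMSO background and the reference compound's maximum.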

[3] = biological target: T1, [GSPT1]-[compound of formula (I)]-[CRBN/DDB1] complex; experiment: HTRF ternary complex assay (GSPT1); format: binding; conditions: read-out: HTRF ternary complex Average pEC50 by molecule (converted)
In short: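 Compounds in dose-response were incubated 180 min at 25 °C with 48 nM GSPT1 and 52.8 nM 6×His-CRBN/DDB1, plus Streptavidin-Eu cryptate and anti-6×His-d2, in buffer with 1 mM DTT and 0.5% DMSO. TR-FRET (665/620) was normalized to DMSO background and fitted with a Hill slope model for EC50/pEC50.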

[4] = biological target: T2, [IKZF2 ZF2]-[compound]-[CRBN/DDB1] ternary complex (Homo sapiens, UniProt Q96SW2+Q9UKS7); experiment: AlphaLISA assay for off-target recruitment detection, IKZF2 ZF2; format: binding; conditions: 1 μM compound; normalized to Helios modulator; read-out: Normalized ternary complex response, IKZF2 ZF2
T2 construct: IKZF2 ZF2
In short: (§1)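 Neo-substrate with 40 μg/ml donor beads and 200 nM 6×His-CRBN/DDB1 with 40 μg/ml anti-His acceptor beads were each prepared in PBS pH 7.4 with Tween-20 and 1 mM DTT, preincubated 30 min at RT, then mixed. Compounds at 2% DMSO were incubated 30 min at 25 °C, read at 680/615 nm, and normalised between DMSO background and reference glue maximum.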

[5] = biological target: [CK1α]-[compound]-[CRBN/DDB1] ternary complex (Homo sapiens, UniProt P48729+Q96SW2); experiment: AlphaLISA assay for off-target recruitment detection, CK1α; format: binding; conditions: 1 μM compound; normalized to FPFT-2216; read-out: Normalized ternary complex response, CK1α
In short: as §1

[6] = biological target: T3, [SALL4 ZF2]-[compound]-[CRBN/DDB1] ternary complex (Homo sapiens, UniProt Q96SW2+Q9UJQ4); experiment: AlphaLISA assay for off-target recruitment detection, SALL4 ZF2; format: binding; conditions: 1 μM compound; normalized to Lenalidomide; read-out: Normalized ternary complex response, SALL4 ZF2
T3 construct: SALL4 ZF2
In short: as §1

Chain of [CK1α]-[compound]-[CRBN/DDB1] ternary complex (P48729 whole entry): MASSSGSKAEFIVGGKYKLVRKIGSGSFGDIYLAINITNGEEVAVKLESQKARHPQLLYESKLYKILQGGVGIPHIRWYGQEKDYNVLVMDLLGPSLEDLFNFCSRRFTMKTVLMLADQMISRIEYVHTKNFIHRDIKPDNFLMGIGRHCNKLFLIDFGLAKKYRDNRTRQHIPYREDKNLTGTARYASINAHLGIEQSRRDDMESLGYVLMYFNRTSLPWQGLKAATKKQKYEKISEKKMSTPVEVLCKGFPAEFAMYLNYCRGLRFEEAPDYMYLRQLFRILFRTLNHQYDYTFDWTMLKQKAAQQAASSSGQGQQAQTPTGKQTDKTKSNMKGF
Chain of [CK1α]-[compound]-[CRBN/DDB1] ternary complex (Q96SW2 whole entry): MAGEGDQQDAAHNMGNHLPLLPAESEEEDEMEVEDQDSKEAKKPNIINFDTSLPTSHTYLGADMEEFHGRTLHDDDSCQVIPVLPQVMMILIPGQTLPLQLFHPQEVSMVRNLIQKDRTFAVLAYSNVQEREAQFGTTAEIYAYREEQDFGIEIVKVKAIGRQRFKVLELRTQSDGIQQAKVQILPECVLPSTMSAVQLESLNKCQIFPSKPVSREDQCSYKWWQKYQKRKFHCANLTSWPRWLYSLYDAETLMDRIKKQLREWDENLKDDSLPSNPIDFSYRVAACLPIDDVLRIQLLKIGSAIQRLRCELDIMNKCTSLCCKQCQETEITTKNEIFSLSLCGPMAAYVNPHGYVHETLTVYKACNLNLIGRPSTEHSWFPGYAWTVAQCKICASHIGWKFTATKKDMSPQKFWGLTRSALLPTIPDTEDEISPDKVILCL
Chain of [CK1α]-[compound]-[CRBN/DDB1] ternary complex (Q16531 whole entry partner): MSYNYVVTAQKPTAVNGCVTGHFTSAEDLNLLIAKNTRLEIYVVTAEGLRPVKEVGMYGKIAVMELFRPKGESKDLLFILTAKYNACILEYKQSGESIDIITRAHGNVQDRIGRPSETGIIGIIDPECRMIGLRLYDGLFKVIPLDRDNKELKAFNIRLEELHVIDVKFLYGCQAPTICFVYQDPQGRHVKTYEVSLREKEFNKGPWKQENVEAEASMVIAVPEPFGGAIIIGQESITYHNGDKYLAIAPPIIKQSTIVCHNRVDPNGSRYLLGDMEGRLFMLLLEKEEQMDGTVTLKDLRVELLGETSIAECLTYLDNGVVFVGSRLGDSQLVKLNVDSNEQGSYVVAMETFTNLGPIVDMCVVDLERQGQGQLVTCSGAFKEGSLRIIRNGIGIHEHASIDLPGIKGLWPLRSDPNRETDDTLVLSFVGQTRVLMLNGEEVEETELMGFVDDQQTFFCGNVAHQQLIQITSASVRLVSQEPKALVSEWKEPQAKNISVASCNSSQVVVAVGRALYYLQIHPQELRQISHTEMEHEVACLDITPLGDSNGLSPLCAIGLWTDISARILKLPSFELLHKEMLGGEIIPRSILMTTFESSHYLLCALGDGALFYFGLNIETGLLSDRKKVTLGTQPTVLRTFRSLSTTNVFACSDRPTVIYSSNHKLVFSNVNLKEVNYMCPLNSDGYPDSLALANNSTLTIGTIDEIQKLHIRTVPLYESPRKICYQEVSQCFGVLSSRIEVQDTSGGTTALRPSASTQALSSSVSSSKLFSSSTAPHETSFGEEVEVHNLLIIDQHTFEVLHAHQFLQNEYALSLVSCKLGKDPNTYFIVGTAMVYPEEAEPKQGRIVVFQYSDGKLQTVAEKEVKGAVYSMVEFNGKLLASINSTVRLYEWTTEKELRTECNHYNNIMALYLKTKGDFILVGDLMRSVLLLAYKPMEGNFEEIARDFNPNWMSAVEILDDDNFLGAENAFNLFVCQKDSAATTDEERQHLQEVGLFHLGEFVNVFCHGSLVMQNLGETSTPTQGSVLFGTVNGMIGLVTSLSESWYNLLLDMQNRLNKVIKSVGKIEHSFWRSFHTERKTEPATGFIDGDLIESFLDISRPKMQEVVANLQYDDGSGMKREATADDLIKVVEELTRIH
T3 sequence (Q9UJQ4 410-432 limits assumed): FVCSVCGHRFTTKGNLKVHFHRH
T3 sequence (Q96SW2 whole entry): as the sequence (Q96SW2 whole entry) above
T3 sequence (Q16531 whole entry partner): as the sequence (Q16531 whole entry partner) above
T2 sequence (Q9UKS7 140-162 limits assumed): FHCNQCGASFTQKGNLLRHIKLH
T2 sequence (Q96SW2 whole entry): as the sequence (Q96SW2 whole entry) above
T2 sequence (Q16531 whole entry partner): as the sequence (Q16531 whole entry partner) above
T1 sequence (P15170 whole entry): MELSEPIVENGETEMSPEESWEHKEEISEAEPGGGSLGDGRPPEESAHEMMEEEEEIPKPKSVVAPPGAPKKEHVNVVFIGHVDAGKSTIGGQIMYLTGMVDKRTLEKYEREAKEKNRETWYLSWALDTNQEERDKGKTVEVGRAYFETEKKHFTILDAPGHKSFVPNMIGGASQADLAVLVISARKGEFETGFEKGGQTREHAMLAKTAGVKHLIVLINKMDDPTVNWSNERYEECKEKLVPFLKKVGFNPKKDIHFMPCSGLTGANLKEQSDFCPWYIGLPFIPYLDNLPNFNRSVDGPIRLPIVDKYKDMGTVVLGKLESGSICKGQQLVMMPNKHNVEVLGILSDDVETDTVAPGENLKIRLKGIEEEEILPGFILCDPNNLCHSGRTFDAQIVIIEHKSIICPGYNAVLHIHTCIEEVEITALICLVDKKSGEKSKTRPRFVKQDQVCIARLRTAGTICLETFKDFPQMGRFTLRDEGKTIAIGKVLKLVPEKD
T1 sequence (Q96SW2 whole entry): as the sequence (Q96SW2 whole entry) above
T1 sequence (Q16531 whole entry partner): as the sequence (Q16531 whole entry partner) above

Row | SMILES | activation at 1 µM [2] [%] | EC50 [3] [µM] | activation at 1 µM [4] [%] | activation at 1 µM [5] [%] | activation at 1 µM [6] [%] | CTG assay Mean minimum [1]
1 | Cc1nc2cc(COC(=O)Nc3cc(C(C)(C)C)no3)ccc2cc1N1CCC(=O)NC1=O [Compound 72, (3-(2,4-dioxotetrahydropyrimidin-1(2H)-yl)-2-methylquinolin-7-yl)methyl (3-(tert-butyl)isoxazol-5-yl)carbamate] | 10 to 50 | 0.316 to 3.16 | < 10 | < 10 | < 10 | ++++ (++++≥75% of viability of the HiBiT-GSPT1 HEK293 cells)
2 | Cc1ccc(NC(=O)OCc2ccc3cc(C4(F)CCC(=O)NC4=O)c(C)nc3c2)cc1Cl (stereo not drawn) [Compound 74, (3-(3-fluoro-2,6-dioxopiperidin-3-yl)-2-methylquinolin-7-yl)methyl (3-chloro-4-methylphenyl)carbamate] | 10 to 50 | > 3.16 | < 10 | < 10 | < 10 | ++++ (++++≥75% of viability of the HiBiT-GSPT1 HEK293 cells)
3 | Cc1nc2cc(COC(=O)Nc3cc(C(C)(C)C)n[nH]3)ccc2cc1C1CCC(=O)NC1=O (stereo not drawn) [Compound 75, (3-(2,6-dioxopiperidin-3-yl)-2-methylquinolin-7-yl)methyl (3-(tert-butyl)-1H-pyrazol-5-yl)carbamate] | > 50 | 0.316 to 3.16 | < 10 | < 10 | < 10 | ++++ (++++≥75% of viability of the HiBiT-GSPT1 HEK293 cells)
4 | Cc1nc2cc(COC(=O)Nc3nc(C(C)(C)C)no3)ccc2cc1C1CCC(=O)NC1=O (stereo not drawn) [Compound 80, (3-(2,6-dioxopiperidin-3-yl)-2-methylquinolin-7-yl)methyl (3-(tert-butyl)-1,2,4-oxadiazol-5-yl)carbamate] | > 50 | 0.316 to 3.16 | < 10 | < 10 | < 10 | ++++ (++++≥75% of viability of the HiBiT-GSPT1 HEK293 cells)

More lines, main results first:

Row | activation at 1 µM [2] [%] | EC50 [3] [µM] | activation at 1 µM [4] [%] | activation at 1 µM [5] [%] | activation at 1 µM [6] [%] | SMILES | CTG assay Mean minimum [1]
5 | > 50 | > 3.16 | < 10 | < 10 | < 10 | Cc1nc2cc(COC(=O)Nc3cc(C(F)(F)F)no3)ccc2cc1C1CCC(=O)NC1=O (stereo not drawn) [Compound 71, (3-(2,6-dioxopiperidin-3-yl)-2-methylquinolin-7-yl)methyl (3-(trifluoromethyl)isoxazol-5-yl)carbamate] | ++++ (++++≥75% of viability of the HiBiT-GSPT1 HEK293 cells)
6 | > 50 | < 0.316 | < 10 | < 10 | < 10 | Cc1nc2cc(COC(=O)Nc3cc(C4(C(F)(F)F)CC4)no3)ccc2cc1C1CCC(=O)NC1=O (stereo not drawn) [Compound 81, (3-(2,6-dioxopiperidin-3-yl)-2-methylquinolin-7-yl)methyl (3-(1-(trifluoromethyl)cyclopropyl)isoxazol-5-yl)carbamate] | ++++ (++++≥75% of viability of the HiBiT-GSPT1 HEK293 cells)
7 | > 50 | < 0.316 | < 10 | < 10 | < 10 | [2H]C([2H])(OC(=O)Nc1cc(C(C)(C)C)no1)c1ccc2cc(C3CCC(=O)NC3=O)c(C)nc2c1 (stereo not drawn) [Compound 82, (3-(2,6-dioxopiperidin-3-yl)-2-methylquinolin-7-yl)methyl-d2 (3-(tert-butyl)isoxazol-5-yl)carbamate] | ++++ (++++≥75% of viability of the HiBiT-GSPT1 HEK293 cells)
